The values that follow come from patent US20160199393A1, “METHODS OF TREATING BRAIN ISCHEMIA OR HYPOXIA” (China Medical University, priority 2015, published 2016).

SMILES strings stand for the structures.

Assay [1] relates to neurons. The assay is described as follows: Annexin V flow cytometric apoptosis assay after OGDR, neurons. The class given is cell-based, mouse. As to conditions: WT cortical cells, 24 h after reperfusion, 10 μM (SAS 500 μM). Here is the method: (§1) Annexin V staining was performed to determine cell apoptosis using the Annexin V-FITC Apoptosis Detection Kit (Sigma-Aldrich) for 10 min at room temperature according to the manufacturers instructions, and then flow cytometric analysis was performed.
(§2) The three-color staining flow cytometric assay using allophycocyanin-microtubule-associated protein 2 (MAP2) for neuron staining, phycoerythrin (PE)-GFAP for astrocyte staining and FITC-annexin V for apoptotic cell staining was performed to count the numbers of neurons, astrocytes, and apoptotic cells. FIGS. 21A and […] show the results of apoptosis in wild type (WT) and xCT^−/− cortical cells treated with OGDR at 24 h after reperfusion. *P<0.01 compared to WT without OGDR, Student's t-test. ^#P<0.01 compared to WT with OGDR, Student's t-test. From FIGS. 21A and 21B it was observed that that smaller numbers of apoptotic cells were present in xCT^−/− neurons and astrocytes after OGDR treatment.

In assay [2] the test system is NMDAR. The conditions noted are these: WT cortical cells, OGDR, 24 h after reperfusion; 10 μM (SAS 500 μM).
Assay [3] concerns cortical infarct. The assay is described as follows: TTC staining infarct volume in rats with CIR. The class given is in vivo, rat. The conditions noted are these: 30 mg/kg ip for 3 days, compared to vehicle.
In assay [4] the test system is WT cortical cells. The assay is described as follows: Lactate dehydrogenase (LDH) level in WT cortical cells after OGD/OGDR. The class given is cell-based, mouse. The conditions noted are these: OGDR, 24 h after reperfusion, 10 μM (SAS 500 μM). As to the method:
(§3) Primary cortical cells were prepared from cerebral cortices of wild-type C57BL/6J or homozygote xCT^−/− mouse embryos in embryonic day 17 as previously described with modification (Goldberg M P, Choi D W. Combined oxygen and glucose deprivation in cortical cell culture: calcium-dependent and calcium-independent mechanisms of neuronal injury. The Journal of neuroscience: the official journal of the Society for Neuroscience, 1993; 13(8):3510-24, which is incorporated here by reference).
The LDH assay was carried out at 24 hours after reperfusion. *P<0.01 compared to drugs-untreated cells (Un), one-way ANOVA. Error bars denote the standard deviation among triplicate experiments.

Assay [5] relates to astrocytes. The assay is described as follows: Annexin V flow cytometric apoptosis assay after OGDR, astrocytes. The class given is cell-based, mouse. As to conditions: WT cortical cells, 24 h after reperfusion, 10 μM (SAS 500 μM). As to the method: as §1, §2
Assay [6] addresses T1, system xc− (Mus musculus, UniProt Q9WTR6).
T1 construct: endogenous in cells; host or cells: primary cortical cells from E17 wild-type C57BL/6J mouse embryos, exposed to OGDR
T1 sequence (Q9WTR6 1-502): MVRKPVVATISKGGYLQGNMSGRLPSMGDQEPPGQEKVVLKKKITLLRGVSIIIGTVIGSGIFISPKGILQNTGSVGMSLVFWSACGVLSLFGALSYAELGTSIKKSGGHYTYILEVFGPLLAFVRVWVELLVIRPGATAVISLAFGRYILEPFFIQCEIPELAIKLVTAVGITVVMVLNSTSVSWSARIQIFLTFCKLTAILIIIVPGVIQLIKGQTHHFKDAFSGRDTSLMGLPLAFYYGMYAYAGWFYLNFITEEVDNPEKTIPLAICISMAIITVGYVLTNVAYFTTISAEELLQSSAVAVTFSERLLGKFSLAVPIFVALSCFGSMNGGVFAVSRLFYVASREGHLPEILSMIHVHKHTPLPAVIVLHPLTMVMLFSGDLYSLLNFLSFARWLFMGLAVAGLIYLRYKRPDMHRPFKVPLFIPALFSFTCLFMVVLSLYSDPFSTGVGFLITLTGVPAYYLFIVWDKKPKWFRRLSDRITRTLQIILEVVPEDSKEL
T1 sequence (P10852 1-526 partner): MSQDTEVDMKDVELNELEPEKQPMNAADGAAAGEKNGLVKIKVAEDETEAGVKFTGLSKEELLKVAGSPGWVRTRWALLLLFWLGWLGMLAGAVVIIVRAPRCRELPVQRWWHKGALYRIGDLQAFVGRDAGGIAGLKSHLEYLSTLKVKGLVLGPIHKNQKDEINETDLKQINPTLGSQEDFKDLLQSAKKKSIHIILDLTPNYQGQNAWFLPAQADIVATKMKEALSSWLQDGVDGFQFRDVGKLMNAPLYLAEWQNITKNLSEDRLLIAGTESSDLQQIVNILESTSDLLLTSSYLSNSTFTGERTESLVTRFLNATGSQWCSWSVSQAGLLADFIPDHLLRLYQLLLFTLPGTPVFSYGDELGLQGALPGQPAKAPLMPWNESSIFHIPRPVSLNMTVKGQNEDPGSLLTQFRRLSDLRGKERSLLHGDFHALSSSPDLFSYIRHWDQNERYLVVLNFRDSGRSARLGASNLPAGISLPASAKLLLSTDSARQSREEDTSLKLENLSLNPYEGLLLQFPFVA
In words: Extracellular glutamate content in WT cortical cells exposed to OGDR. The class given is cell-based. The conditions noted are these: 24 h after reperfusion, 10 μM (SAS 500 μM). As to the method: as §3

Assay [7] concerns cortical infarct. The assay is described as follows: MRI infarct volume in rats with CIR. The class given is in vivo, rat. As to conditions: day 28 after reperfusion.
Experimental: (§4) Eight to ten-week-old male adult male Sprague-Dawley rats, C57BL/6J mice and xCT^−/− mice were anesthetized with 1.5% isoflurane in oxygen, allowed breathing spontaneously, and body temperature was maintained at 37° C. with a heat lamp during surgery for right middle cerebral artery ligation and bilateral common carotid artery clamping as previously described (Chen S T, Hsu C Y, Hogan E L, Maricq H, Balentine J D. A model of focal ischemic stroke in the rat: reproducible extensive cortical infarction. Stroke; a journal of cerebral circulation. 1986; 17(4):738-43, which is incorporated here by reference). Animals were subjected to transient cerebral ischemia for 90 min in rats and 2 h in mice.
MRI was performed on rats under anesthesia in a General Electric imaging system (R4; GE) at 3.0 T. Brains were scanned in 6-8 coronal image slices, each 2 mm thick without any gaps. […] The area of infarct was drawn manually from slice to slice, and the volume was then calculated by internal volume analysis software (Voxtool; GE) (Shyu W C, Lin S Z, Chiang M E, Chen D C, Su C Y, Wang H J, et al. Secretoneurin promotes neuroprotection and neuronal plasticity via the Jak2/Stat3 pathway in murine models of stroke. The Journal of clinical investigation. 2008; 118(1):133-48, which is incorporated by reference). […]
Assay [8] has as its system ischemic cortex. In words: Microdialysis of extracellular glutamate in ischemic cortex of rats with CIR. The class given is in vivo, rat.
Experimental: as §4
Samples were diluted in 20 mM borate buffer at pH 9.0 and were derivatized for 1 min with N-tert-butyloxycarbonyl-L-cysteine and o-phthaldialdehyde. Samples then were separated in a 5-mm C18 reverse-phase column (220×4.6 mm) Sheri-5 (Brownlee), and glutamate was monitored by fluorescence (334 nm excitation and 433 nm emission) using an RF-10AXL fluorescence detector (Shimadzu). Standards of glutamate were assayed before and after the dialysis samples. […]
Assay [9] deals with rats with CIR. In words: Neurological behavioral measurements in rats with CIR. The class given is in vivo, rat.
Experimental: as §4
Behavioral assessments were performed 3 days before cerebral ischemia and 72 hours after cerebral ischemia. The tests measured body asymmetry and locomotor activity. Furthermore, grip strength was analyzed using Grip Strength Meter (TSE-Systems) as previously described with modification. In brief, the percentage of improvement in grip strength was measured on each fore limb separately and was calculated as the ratio between mean strength of 20 pulls of the side contralateral to the ischemia and the ipsilateral side. In addition, the ratio of grip strength after treatment to baseline was also calculated, and changes were presented as percent of baseline (Shyu W C, Lin S Z, Chiang M F, Chen D C, Su C Y, Wang H J, et al. Secretoneurin promotes neuroprotection and neuronal plasticity via the Jak2/Stat3 pathway in murine models of stroke. The Journal of clinical investigation. 2068; 118(1):133-48, which is incorporated by reference).
(§5) Rats were treated intraperitoneal injection with either vehicle, SAS (5 mg/kg/day) or the mixture of sulfapyridine (5-ASA, 3.12 mg/kg/day) and salicylate (SP, 1.72 mg/kg) for 3 days after brain ischemia.
The subject of assay [10] is TUNEL-positive cells. The assay is described as follows: TUNEL histochemistry in the ipsilateral cerebral hemisphere of rats with CIR. The class given is in vivo, rat.
Experimental: Animals were subjected to transient cerebral ischemia for 90 min in rats and 2 h in mice.
To detect apoptosis, a TUNEL staining Kit (DeadEnd Fluorimetric TUNEL system; Promega) was used for the TUNEL assay (Shyu W C, Lin S Z, Chiang M F, Chen D C, Su C Y, Wang H J, et al. Secretoneurin promotes neuroprotection and neuronal plasticity via the Jak2/Stat3 pathway in murine models of stroke. The Journal of clinical investigation. 2008; 118(1):133-48, which is incorporated by reference).
as §5

Turning to `CNC(=O)c1cc(Oc2ccc(NC(=O)Nc3ccc(Cl)c(C(F)(F)F)c3)cc2)ccn1` [sorafenib], the apoptosis in neurons entry in [1] was “inhibited”. In assay [2], the “hyperfunction of NMDAR (binding radioactivity of 18F-FSAG)” value was “inhibited”. For the same compound, in assay [3], the “cortical infarct volume (TTC staining)” value was “significantly smaller”. Besides, the LDH levels result in assay [4] is given as “inhibited”. The apoptosis in astrocytes entry in assay [5] is recorded as “inhibited”. In addition, the “OGDR-induced glutamate release (extracellular glutamate content)” value in assay [6] was “inhibited”.
Regarding `O=C(O)c1cc(/N=N/c2ccc(S(=O)(=O)Nc3ccccn3)cc2)ccc1O` [sulfasalazine], in assay [7], the “cortical infarct size (MRI)” value is “remarkable size reductions”. Moreover, the “extracellular glutamate content in ischemic cortex” value in [8] (5 mg/kg/day BID for 3 days, 4 to 72 h after reperfusion) is “reduction”. Also, in [8] (different dosages), the “suppression of glutamate efflux in ischemic cortex at different dosages” value is “inhibited CIR-induced glutamate release in a dose-dependent manner”. For the same compound, the apoptosis in neurons result in assay [1] is on record as “inhibited”. The “hyperfunction of NMDAR (binding radioactivity of 18F-FSAG)” value in assay [2] is listed as “inhibited”. Further, the “locomotor activity (number of vertical movements, vertical activity, vertical movement time)” value in [9] (between 7 and 28 days after CIR, compared with controls) is “significantly higher”. Also, in assay [9] (day 28 after reperfusion, compared with control groups), the “improvement in grip strength” value is recorded as “higher percentage of improvement”. In addition, the body asymmetry entry in assay [9] (days 7 to 28, compared with control rats) was “significantly reduced”. The LDH levels entry in assay [4] is on record as “inhibited”. Also, in [5], the apoptosis in astrocytes entry is recorded as “inhibited”. Further, the “inhibition of TUNEL-positive cells at different dosages” value in [10] (different dosages) is “decreased CIR-induced apoptosis in a dose-dependent manner”. Besides, the “number of TUNEL-positive cells” value in assay [10] (ischemic penumbra, 24 h after reperfusion) is “significantly reduced”. Moreover, the “OGDR-induced glutamate release (extracellular glutamate content)” value in assay [6] is on record as “inhibited”.
